# Organism: Rattus norvegicus
# Test: DrugMatrix - Regimen: Daily Repeat
# Format: toxicity, organism-based, Sprague-Dawley
# Parameters: regimen Daily Repeat, gender Male, age 6-8 weeks
# Conditions: in vivo, po, route oral GAVAGE, vehicle .5 % CMC; for ABSOLUTE BASOPHIL / ABSOLUTE EOSINOPHIL / ABSOLUTE LYMPHOCYTE / ABSOLUTE MONOCYTE / ABSOLUTE SEGMENTED NEUTROPHIL / BASOPHIL / EOSINOPHIL / ERYTHROCYTE COUNT / HEMATOCRIT / HEMOGLOBIN / LEUKOCYTE COUNT / LYMPHOCYTE / MEAN CORPUSCULAR HEMOGLOBIN / MEAN CORPUSCULAR HEMOGLOBIN CONCENTRATION / MEAN CORPUSCULAR VOLUME / MONOCYTE / NEUTROPHIL / NUCLEATED RED BLOOD CELLS / PLATELET COUNT: tissue Blood; for ALANINE AMINOTRANSFERASE / ALBUMIN / ALKALINE PHOSPHATASE / ASPARTATE AMINOTRANSFERASE / BLOOD UREA NITROGEN / CARBON DIOXIDE / CHLORIDE / CHOLESTEROL / CREATINE PHOSPHOKINASE / CREATININE / GLUCOSE / LACTATE DEHYDROGENASE / LIPASE / PHOSPHORUS / POTASSIUM / SODIUM / TOTAL BILIRUBIN / TOTAL PROTEIN / URIC ACID: tissue Plasma
# [1] = 0 mg/kg, 72 h, dose level Control, time 3 day
# [2] = 0 mg/kg, 120 h, dose level Control, time 5 day
# [3] = 100 mg/kg, 72 h, dose level Low, time 3 day
compound,measurement,setting,value
COC1=C(OC)C(=O)C(CCCCCCCCCCO)=C(C)C1=O [IDEBENONE],ABSOLUTE BASOPHIL,[1],0 CELLS/uL
same,ABSOLUTE EOSINOPHIL,[1],0 CELLS/uL
same,ABSOLUTE LYMPHOCYTE,[1],12191.17 CELLS/uL
same,ABSOLUTE MONOCYTE,[1],183.17 CELLS/uL
same,ABSOLUTE SEGMENTED NEUTROPHIL,[1],1192.33 CELLS/uL
same,BASOPHIL,[1],0%
same,EOSINOPHIL,[1],0%
same,ERYTHROCYTE COUNT,[1],5.51 x10E6/uL
same,HEMATOCRIT,[1],35.45%
same,HEMOGLOBIN,[1],13.82 G/DL
same,LEUKOCYTE COUNT,[1],13.57 x10E3/uL
same,LYMPHOCYTE,[1],89.83%
same,MEAN CORPUSCULAR HEMOGLOBIN,[1],25.1 pg
same,MEAN CORPUSCULAR HEMOGLOBIN CONCENTRATION,[1],38.98 G/DL
same,MEAN CORPUSCULAR VOLUME,[1],64.42 fL
same,MONOCYTE,[1],1.33%
same,NEUTROPHIL,[1],8.83%
same,NUCLEATED RED BLOOD CELLS,[1],0 /100WBC
same,PLATELET COUNT,[1],1118.17 x10E3/uL
same,ALANINE AMINOTRANSFERASE,[1],55 u/L
same,ALBUMIN,[1],4.15 G/DL
same,ALKALINE PHOSPHATASE,[1],449.5 u/L
same,ASPARTATE AMINOTRANSFERASE,[1],112.83 u/L
same,BLOOD UREA NITROGEN,[1],17.33 mg/dL
same,CARBON DIOXIDE,[1],29.5 mmol/L
same,CHLORIDE,[1],101 MEQ/L
same,CHOLESTEROL,[1],70 mg/dL
same,CREATINE PHOSPHOKINASE,[1],1325.83 u/L
same,CREATININE,[1],0.18 mg/dL
same,GLUCOSE,[1],171.5 mg/dL
same,LACTATE DEHYDROGENASE,[1],386 u/L
same,LIPASE,[1],10 u/L
same,PHOSPHORUS,[1],11.57 mg/dL
same,POTASSIUM,[1],6.21 MEQ/L
same,SODIUM,[1],141.65 MEQ/L
same,TOTAL BILIRUBIN,[1],0.15 mg/dL
same,TOTAL PROTEIN,[1],5.75 G/DL
same,URIC ACID,[1],1.28 mg/dL
same,ABSOLUTE BASOPHIL,[2],0 CELLS/uL
same,ABSOLUTE EOSINOPHIL,[2],138.17 CELLS/uL
same,ABSOLUTE LYMPHOCYTE,[2],13283.17 CELLS/uL
same,ABSOLUTE MONOCYTE,[2],303.83 CELLS/uL
same,ABSOLUTE SEGMENTED NEUTROPHIL,[2],1308.17 CELLS/uL
same,BASOPHIL,[2],0%
same,EOSINOPHIL,[2],1%
same,ERYTHROCYTE COUNT,[2],5.32 x10E6/uL
same,HEMATOCRIT,[2],33.8%
same,HEMOGLOBIN,[2],13.63 G/DL
same,LEUKOCYTE COUNT,[2],15.03 x10E3/uL
same,LYMPHOCYTE,[2],88.33%
same,MEAN CORPUSCULAR HEMOGLOBIN,[2],25.68 pg
same,MEAN CORPUSCULAR HEMOGLOBIN CONCENTRATION,[2],40.35 G/DL
same,MEAN CORPUSCULAR VOLUME,[2],63.67 fL
same,MONOCYTE,[2],1.83%
same,NEUTROPHIL,[2],8.83%
same,NUCLEATED RED BLOOD CELLS,[2],0 /100WBC
same,PLATELET COUNT,[2],1097.5 x10E3/uL
same,ALANINE AMINOTRANSFERASE,[2],54.5 u/L
same,ALBUMIN,[2],4.27 G/DL
same,ALKALINE PHOSPHATASE,[2],337 u/L
same,ASPARTATE AMINOTRANSFERASE,[2],94.67 u/L
same,BLOOD UREA NITROGEN,[2],17 mg/dL
same,CARBON DIOXIDE,[2],28.33 mmol/L
same,CHLORIDE,[2],101.5 MEQ/L
same,CHOLESTEROL,[2],71.33 mg/dL
same,CREATINE PHOSPHOKINASE,[2],628.17 u/L
same,CREATININE,[2],0.19 mg/dL
same,GLUCOSE,[2],177.83 mg/dL
same,LACTATE DEHYDROGENASE,[2],500.5 u/L
same,LIPASE,[2],9.5 u/L
same,PHOSPHORUS,[2],12.3 mg/dL
same,POTASSIUM,[2],5.63 MEQ/L
same,SODIUM,[2],143.03 MEQ/L
same,TOTAL BILIRUBIN,[2],0.2 mg/dL
same,TOTAL PROTEIN,[2],6.02 G/DL
same,URIC ACID,[2],1.5 mg/dL
same,ABSOLUTE BASOPHIL,[3],0 CELLS/uL
same,ABSOLUTE EOSINOPHIL,[3],86.67 CELLS/uL
same,ABSOLUTE LYMPHOCYTE,[3],16240.33 CELLS/uL
same,ABSOLUTE MONOCYTE,[3],104 CELLS/uL
same,ABSOLUTE SEGMENTED NEUTROPHIL,[3],1602.33 CELLS/uL
same,BASOPHIL,[3],0%
same,EOSINOPHIL,[3],0.67%
same,ERYTHROCYTE COUNT,[3],5.22 x10E6/uL
same,HEMATOCRIT,[3],32.37%
same,HEMOGLOBIN,[3],13.17 G/DL
same,LEUKOCYTE COUNT,[3],18.03 x10E3/uL
same,LYMPHOCYTE,[3],90.33%
same,MEAN CORPUSCULAR HEMOGLOBIN,[3],25.27 pg
same,MEAN CORPUSCULAR HEMOGLOBIN CONCENTRATION,[3],40.67 G/DL
same,MEAN CORPUSCULAR VOLUME,[3],62.07 fL
same,MONOCYTE,[3],0.67%
same,NEUTROPHIL,[3],8.33%
same,NUCLEATED RED BLOOD CELLS,[3],0 /100WBC
same,PLATELET COUNT,[3],1354 x10E3/uL
same,ALANINE AMINOTRANSFERASE,[3],57.67 u/L
same,ALBUMIN,[3],3.97 G/DL
same,ALKALINE PHOSPHATASE,[3],401 u/L
same,ASPARTATE AMINOTRANSFERASE,[3],105.67 u/L
same,BLOOD UREA NITROGEN,[3],17.67 mg/dL
same,CARBON DIOXIDE,[3],26.33 mmol/L
same,CHLORIDE,[3],101 MEQ/L
same,CHOLESTEROL,[3],67 mg/dL
same,CREATINE PHOSPHOKINASE,[3],961.67 u/L
same,CREATININE,[3],0.19 mg/dL
same,GLUCOSE,[3],227 mg/dL
same,LACTATE DEHYDROGENASE,[3],252 u/L
same,LIPASE,[3],9.67 u/L
same,PHOSPHORUS,[3],13.13 mg/dL
same,POTASSIUM,[3],6.02 MEQ/L
same,SODIUM,[3],142.43 MEQ/L
same,TOTAL BILIRUBIN,[3],0.2 mg/dL
same,TOTAL PROTEIN,[3],5.47 G/DL
same,URIC ACID,[3],1.67 mg/dL

# — ChEMBL document CHEMBL3885881, “DrugMatrix”
